In US20260062422A1 (Halda Therapeutics OpCo, Inc., priority 2022, published 2026):

How the values were obtained:
[1] = tested on: T47D cells; assay: Cellular growth inhibition assay for T47D cells, CellTiter-Glo; format: cell-based, human; settings: Homo sapiens, T47D, 72 h, 72 hours treatment, CellTiter-Glo 2.0 cell viability
Summary of the method: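 Growth inhibition as GI50, fitted with four parameters to CellTiter-Glo luminescence after 72 h of compound exposure (0.5% DMSO). Cells were T47D, grown in insulin-supplemented (0.2 units/mL) DMEM with 10% FBS and treated one day post-seeding.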

[2] = tested on: T-Rex 293 cell line SC3 cells lacking increased expression of androgen receptor protein; assay: Cellular growth inhibition, T-Rex 293 SC3 cells without doxycycline, CellTiter-Glo; format: cell-based; settings: 72 h, T-Rex 293 SC3 cells not exposed to doxycycline, CellTiter-Glo 2.0
Summary of the method: (§1)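 SC3 is a T-Rex 293 clone stably transfected with wild-type androgen receptor in pcDNA4/TO, inducible by 10 ng/mL doxycycline. Cells were grown in phenol red-free DMEM with 10% charcoal-dextran FBS, with or without doxycycline, dosed 24 h after seeding (0.5% DMSO) for 72 h. Viability was read by CellTiter-Glo 2.0 luminescence and GI50 obtained from four-parameter fits.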

[3] = tested on: T-Rex 293 cell line SC3 cells having increased expression of androgen receptor protein due to exposure to doxycycline; assay: Cellular growth inhibition, T-Rex 293 SC3 cells with doxycycline (androgen receptor induced), CellTiter-Glo; format: cell-based; settings: 72 h, T-Rex 293 SC3 cells with 10 ng/mL doxycycline (increased androgen receptor expression)
Summary of the method: as §1

SMILES	GI50 [1] [nM]	GI50 [2] [nM]	GI50 [3] [nM]
Cc1sc2c(c1C)C(c1ccc(Cl)cc1)=N[C@@H](CC(=O)NCCN(C)c1ncc(C(=O)N[C@H]3C(C)(C)[C@H](Oc4ccc(C#N)c(Cl)c4)C3(C)C)cn1)c1nnc(C)n1-2 [Compound I-1, N-[3-(3-chloro-4-cyano-phenoxy)-2,2,4,4-tetramethyl-cyclobutyl]-2-[2-[[2-[(9S)-7-(4-chlorophenyl)-4,5,13-trimethyl-3-thia-1,8,11,12-tetrazatricyclo[8.3.0.02,6]trideca-2(6),4,7,10,12-pentaen-9-yl]acetyl]amino]ethyl-methyl-amino]pyrimidine-5-carboxamide]	< 500	1500 to 3000	1500 to 3000
Cc1sc2c(c1C)C(c1ccc(Cl)cc1)=N[C@@H](CC(=O)NCCOCCOCCOC1CCN(c3ncc(C(=O)N[C@H]4C(C)(C)[C@H](Oc5ccc(C#N)c(Cl)c5)C4(C)C)cn3)CC1)c1nnc(C)n1-2 [Compound I-7]	< 500	500 to 1500	< 500
Cc1sc2c(c1C)C(c1ccc(OCCOC3CCN(c4ncc(C(=O)N[C@H]5C(C)(C)[C@H](Oc6ccc(C#N)c(Cl)c6)C5(C)C)cn4)CC3)cc1)=N[C@@H](CC(=O)O)c1nnc(C)n1-2 [Compound I-38]	500 to 1500	> 3000	500 to 1500
Cc1sc2c(c1C)C(c1cccc(OCCOC3CCN(c4ncc(C(=O)N[C@H]5C(C)(C)[C@H](Oc6ccc(C#N)c(Cl)c6)C5(C)C)cn4)CC3)c1)=N[C@@H](CC(=O)O)c1nnc(C)n1-2 [Compound I-41]	1500 to 3000	> 3000	500 to 1500
CCNC(=O)C[C@@H]1N=C(c2cccc(OCCOC3CCN(c4ncc(C(=O)N[C@H]5C(C)(C)[C@H](Oc6ccc(C#N)c(Cl)c6)C5(C)C)cn4)CC3)c2)c2c(sc(C)c2C)-n2c(C)nnc21 [Compound I-46, N-((1r,3r)-3-(3-chloro-4-cyanophenoxy)-2,2,4,4-tetramethylcyclobutyl)-2-(4-(2-(3-((S)-6-(2-(ethylamino)-2-oxoethyl)-2,3,9-trimethyl-6H-thieno[3,2-f][1,2,4]triazolo[4,3-a][1,4]diazepin-4-yl)phenoxy)ethoxy)piperidin-1-yl)pyrimidine-5-carboxamide]	500 to 1500	500 to 1500	< 500
CCNC(=O)C[C@@H]1N=C(c2cccc(OCCOCCOC3CCN(c4ncc(C(=O)N[C@H]5C(C)(C)[C@H](Oc6ccc(C#N)c(Cl)c6)C5(C)C)cn4)CC3)c2)c2c(sc(C)c2C)-n2c(C)nnc21 [Compound I-47, N-((1r,3r)-3-(3-chloro-4-cyanophenoxy)-2,2,4,4-tetramethylcyclobutyl)-2-(4-(2-(2-(3-((S)-6-(2-(ethylamino)-2-oxoethyl)-2,3,9-trimethyl-6H-thieno[3,2-f][1,2,4]triazolo[4,3-a][1,4]diazepin-4-yl)phenoxy)ethoxy)ethoxy)piperidin-1-yl)pyrimidine-5-carboxamide]		500 to 1500	< 500
CCNC(=O)C[C@@H]1N=C(c2cccc(OCCOCCOCCOC3CCN(c4ncc(C(=O)N[C@H]5C(C)(C)[C@H](Oc6ccc(C#N)c(Cl)c6)C5(C)C)cn4)CC3)c2)c2c(sc(C)c2C)-n2c(C)nnc21 [Compound I-48, N-((1r,3r)-3-(3-chloro-4-cyanophenoxy)-2,2,4,4-tetramethylcyclobutyl)-2-(4-(2-(2-(2-(3-((S)-6-(2-(ethylamino)-2-oxoethyl)-2,3,9-trimethyl-6H-thieno[3,2-f][1,2,4]triazolo[4,3-a][1,4]diazepin-4-yl)phenoxy)ethoxy)ethoxy)ethoxy)piperidin-1-yl)pyrimidine-5-carboxamide]		500 to 1500	< 500
CCNC(=O)C[C@@H]1N=C(c2ccc(OCCOC3CCN(c4ncc(C(=O)N[C@H]5C(C)(C)[C@H](Oc6ccc(C#N)c(Cl)c6)C5(C)C)cn4)CC3)cc2)c2c(sc(C)c2C)-n2c(C)nnc21 [Compound I-60, N-((1r,3r)-3-(3-chloro-4-cyanophenoxy)-2,2,4,4-tetramethylcyclobutyl)-2-(4-(2-(4-((S)-6-(2-(ethylamino)-2-oxoethyl)-2,3,9-trimethyl-6H-thieno[3,2-f][1,2,4]triazolo[4,3-a][1,4]diazepin-4-yl)phenoxy)ethoxy)piperidin-1-yl)pyrimidine-5-carboxamide]	500 to 1500	< 500	< 500
CCNC(=O)C[C@@H]1N=C(c2ccc(OC3CCN(c4ncc(C(=O)N[C@H]5C(C)(C)[C@H](Oc6ccc(C#N)c(Cl)c6)C5(C)C)cn4)CC3)cc2)c2c(sc(C)c2C)-n2c(C)nnc21 [Compound I-61]	500 to 1500	1500 to 3000	< 500
CCN(C)C(=O)C[C@@H]1N=C(c2ccc(OCCOC3CCN(c4ncc(C(=O)N[C@H]5C(C)(C)[C@H](Oc6ccc(C#N)c(Cl)c6)C5(C)C)cn4)CC3)cc2)c2c(sc(C)c2C)-n2c(C)nnc21 [Compound I-66]	500 to 1500	< 500	< 500
CCNC(=O)C[C@@H]1N=C(c2ccc(N3CCC(N(C)C4CCN(c5ncc(C(=O)N[C@H]6C(C)(C)[C@H](Oc7ccc(C#N)c(Cl)c7)C6(C)C)cn5)CC4)CC3)cc2)c2c(sc(C)c2C)-n2c(C)nnc21 [Compound I-113]		1500 to 3000	< 500
CCNC(=O)C[C@@H]1N=C(c2ccc(N3CCC(OC4CCN(c5ncc(C(=O)N[C@H]6C(C)(C)[C@H](Oc7ccc(C#N)c(Cl)c7)C6(C)C)cn5)CC4)CC3)cc2)c2c(sc(C)c2C)-n2c(C)nnc21 [Compound I-114]		500 to 1500	< 500

Now from value to compound, other results behind:

GI50 [1] [nM]	SMILES	GI50 [2] [nM]	GI50 [3] [nM]
500 to 1500	Cc1sc2c(c1C)C(c1ccc(Cl)cc1)=N[C@@H](CC(=O)NCCOCCOCCOCCOCCOC1CCN(c3ncc(C(=O)N[C@H]4C(C)(C)[C@H](Oc5ccc(C#N)c(Cl)c5)C4(C)C)cn3)CC1)c1nnc(C)n1-2 [Compound I-8]	1500 to 3000	< 500
500 to 1500	Cc1sc2c(c1C)C(c1ccc(Cl)cc1)=N[C@H](CC(=O)NCCOCCOCCOCCOCCOC1CCN(c3ncc(C(=O)N[C@H]4C(C)(C)[C@H](Oc5ccc(C#N)c(Cl)c5)C4(C)C)cn3)CC1)c1nnc(C)n1-2 [Compound I-14]	> 3000	> 3000
< 500	Cc1sc2c(c1C)C(c1ccc(Cl)cc1)=N[C@@H](CC(=O)NCCCN1CCN(CC3CCN(c4ncc(C(=O)N[C@H]5C(C)(C)[C@H](Oc6ccc(C#N)c(Cl)c6)C5(C)C)cn4)CC3)CC1)c1nnc(C)n1-2 [Compound I-36, N-((1r,3r)-3-(3-chloro-4-cyanophenoxy)-2,2,4,4-tetramethylcyclobutyl)-2-(4-((4-(3-(2-((S)-4-(4-chlorophenyl)-2,3,9-trimethyl-6H-thieno[3,2-f][1,2,4]triazolo[4,3-a][1,4]diazepin-6-yl)acetamido)propyl)piperazin-1-yl)methyl)piperidin-1-yl)pyrimidine-5-carboxamide]	500 to 1500	500 to 1500
500 to 1500	CCNC(=O)C[C@@H]1N=C(c2ccc(OCCOCCOC3CCN(c4ncc(C(=O)N[C@H]5C(C)(C)[C@H](Oc6ccc(C#N)c(Cl)c6)C5(C)C)cn4)CC3)cc2)c2c(sc(C)c2C)-n2c(C)nnc21 [Compound I-44]	500 to 1500	< 500
< 500	Cc1sc2c(c1C)C(c1ccc(OC3CC4(CCN(c5ncc(C(=O)N[C@H]6C(C)(C)[C@H](Oc7ccc(C#N)c(Cl)c7)C6(C)C)cn5)CC4)C3)cc1)=N[C@@H](Cc1ncco1)c1nnc(C)n1-2 [Compound I-49, N-[3-(3-chloro-4-cyano-phenoxy)-2,2,4,4-tetramethyl-cyclobutyl]-2-[2-[4-[(9S)-4,5,13-trimethyl-9-(oxazol-2-ylmethyl)-3-thia-1,8,11,12-tetrazatricyclo[8.3.0.02,6]trideca-2(6),4,7,10,12-pentaen-7-yl]phenoxy]-7-azaspiro[3.5]nonan-7-yl]pyrimidine-5-carboxamide]	< 500	< 500
500 to 1500	CCNC(=O)C[C@@H]1N=C(c2ccc(C#CCN3CCN(c4ncc(C(=O)N[C@H]5C(C)(C)[C@H](Oc6ccc(C#N)c(Cl)c6)C5(C)C)cn4)CC3)cc2)c2c(sc(C)c2C)-n2c(C)nnc21 [Compound I-54, N-[3-(3-chloro-4-cyano-phenoxy)-2,2,4,4-tetramethyl-cyclobutyl]-2-[4-[3-[4-[(9S)-9-[2-(ethylamino)-2-oxo-ethyl]-4,5,13-trimethyl-3-thia-1,8,11,12-tetrazatricyclo[8.3.0.02,6]trideca-2(6),4,7,10,12-pentaen-7-yl]phenyl]prop-2-ynyl]piperazin-1-yl]pyrimidine-5-carboxamide]	500 to 1500	< 500
> 3000	Cc1sc2c(c1C)C(c1ccc(C#CCN3CCN(c4ncc(C(=O)N[C@H]5C(C)(C)[C@H](Oc6ccc(C#N)c(Cl)c6)C5(C)C)cn4)CC3)cc1)=N[C@@H](CC(=O)OC(C)(C)C)c1nnc(C)n1-2 [Compound I-55]	> 3000	< 500
< 500	CCNC(=O)C[C@@H]1N=C(c2ccc(OCC3CN(c4ncc(C(=O)N[C@H]5C(C)(C)[C@H](Oc6ccc(C#N)c(Cl)c6)C5(C)C)cn4)C3)cc2)c2c(sc(C)c2C)-n2c(C)nnc21 [Compound I-71]	500 to 1500	< 500
500 to 1500	CCNC(=O)C[C@@H]1N=C(c2ccc(OCCOC3CCN(c4ncc(C(=O)N[C@H]5C(C)(C)[C@H](Oc6ccc(C#N)c(Cl)c6)C5(C)C)cn4)CC3)c(F)c2F)c2c(sc(C)c2C)-n2c(C)nnc21 [Compound I-73]	500 to 1500	< 500
